Experiments:
Format in all cases: in vivo, human
trained sensory panel [1] = test: Testing of compounds: tasting of 0.3% NaCl solution with 2 ppm compound by trained sensory panel; conditions: 2 ppm compound in a solution of 0.3% NaCl; trained sensory panel of 20 women
Description: Various compounds prepared in the previous examples were tested. Two solutions were prepared: A: a solution of 0.3% NaCl, B: a solution of 0.3% NaCl and 2 ppm compound as per Table 1. The samples were tasted by a trained sensory panel composed of 20 women aged between 30 and 60.

bench-top tasting panel [2] = test: Model chicken broth (no MSG added, 0.3% sugar added), blind umami ranking; conditions: for Level preferred by panelists in this base: model chicken broth, 0.3% sugar added, % by weight
Description: (§1) The following compositions are made and tested. Using a bench-top tasting panel (consisting of 10 panelists—flavorists, application experts), panelists were asked to record the sensory attribute differences (umami) between the samples. All samples were tasted blind and ranked on umami. Model Chicken Broth—no MSG Added, 0.3% Sugar Added The model chicken broth powder was prepared from 11.9 g chicken fat, 23.81 g salt, 14.29 g sugar, 0.95 g onion powder, 49.01 g chicken powder, 0.04 g turmeric powder. To prepare the model chicken broth 2.0 g of powder was mixed 98.0 g hot water.

bench-top tasting panel [3] = test: Model chicken broth (no MSG added, no sugar added), blind umami ranking; conditions: for Level preferred by panelists in this base: model chicken broth, no MSG added, % by weight
Description: as §1, with “no” for “0.3%”

bench-top tasting panel [4] = test: Commercial organic chicken broth, blind umami ranking; conditions: for Level preferred by panelists in this base: commercial organic chicken broth, % by weight
Text: The following compositions are made and tested. Using a bench-top tasting panel (consisting of 10 panelists—flavorists, application experts), panelists were asked to record the sensory attribute differences (umami) between the samples. All samples were tasted blind and ranked on umami. Commercial Organic Chicken Broth (Swanson's Certified Organic Chicken Broth—No added MSG, contains about 0.4% sugars)

[5] = tested on: small group of flavourists; test: Tomato soup formulation tasting against reference soup; conditions: 1.5 ppm compound in tomato soup containing MSG; 4 flavourists
Description: A tomato soup mix was prepared from 9.4 g sodium chloride, 1 g MSG, 0.08 g ribonucleotides (ex yeast), 32 g tomato powder (ex Spreda), 25.1 g glucose, 21 g starch (Ultrasperse™ 5 ex National Starch), 5 g palm fat powder, 3 g yeast powder, 1 g onion powder, 0.15 g carrot powder, 0.05 g ground white pepper, 0.3 g celery extract powder, 0.05 g ground laurel leaf powder, and 1.85 g sucrose. 25 g of the well-mixed ingredients was added to 250 g of boiling water and stirred until completely dissolved, to give a reference soup.
The reference soup was compared with a batch of the same soup containing 1.5 ppm of 1-(2-hydroxy-4-isobutoxyphenyl)-3-(pyridine-2-yl)propan-1-one.

[6] = tested on: small group of flavourists; test: Tomato ketchup tasting; conditions: 2 ppm compound in tomato ketchup; 4 flavourists
Description: A tomato ketchup was prepared from 19% tomato paste (28-30% dry weight), 8% vinegar (15%), 3% sodium chloride, 20% sugar and 50% water.
To one-half of the batch was added 2 ppm of 1-(2-hydroxy-4-methoxyphenyl)-3-(pyridin-2-yl)propan-1-one.

trained sensory panel [7] = test: Potato chips tasting
Description: Plain potato chips were prepared.
One part was flavoured with 1.2% sodium chloride (sample A),
One part was flavoured with 1.2% sodium chloride and 0.3% MSG (sample B),
One part was flavoured with 1.2% sodium chloride and 2 ppm of 1-(2-hydroxy-4-methylphenyl)-3-(pyridin-2-yl)propan-1-one (sample C).
(§2) The samples were tasted by a trained sensory panel composed of 20 women aged between 30 and 60.

trained sensory panel [8] = test: Comparative test with MSG: tasting of 0.3% NaCl / 0.03% MSG solution with compound; conditions: 5 ppm compound in 0.3% NaCl and 0.03% MSG; Solution A without compound: salty, umami
Description: Two solutions were prepared:
A: a solution of 0.3% NaCl and 0.03% MSG,
B: a solution of 0.3% NaCl, 0.03% MSG and 5 ppm of 1-(4-hydroxybenzo[d][1,3]dioxol-5-yl)-3-(pyridin-2-yl)propan-1-one.
as §2

[9] = 0.002% compound in model chicken broth, sugar added, Control 6th
[10] = 0.001% compound in model chicken broth, Control 5th
[11] = 0.002% compound in commercial organic chicken broth, Control 5th

Cc1cc(C)c(O)c(C(=O)CCc2ccccn2)c1 [1-(2-hydroxy-3,5-dimethylphenyl)3-(pyridine-2-yl)propan-1-one]
Taste description (trained sensory panel [1]): Umami

Cc1cc(O)c(C(=O)CCc2ccccn2)cc1C [1-(2-hydroxy-4,5-dimethylphenyl)-3-(pyridine-2-yl)propan-1-one]
Taste description (trained sensory panel [1]): Umami, sweet, savoury, salty | Performance when evaluating for umami (bench-top tasting panel [2]; 0.002% compound in model chicken broth, sugar added): performed well | Finishing position in blind ranking of 6 samples on umami (bench-top tasting panel [2]; [9]): 2 | Level preferred by panelists in this base (bench-top tasting panel [2]): 0.002%

CC(C)COc1ccc(C(=O)CCc2ccccn2)c(O)c1 [1-(2-hydroxy-4-isobutoxyphenyl)-3-(pyridine-2-yl)propan-1-one]
Finishing position in blind ranking of 6 samples on umami (bench-top tasting panel [3]; [10]): 4 | Level preferred by panelists in this base (bench-top tasting panel [3]): 0.001% | Taste description (trained sensory panel [1]): Umami, sweet, salty, bouillon, lingering, | Finishing position in blind ranking of 6 samples on umami (bench-top tasting panel [4]; [11]): 3 | Level preferred by panelists in this base (bench-top tasting panel [4]): 0.002% | Finishing position in blind ranking of 6 samples on umami (bench-top tasting panel [2]; [9]): 4 | Level preferred by panelists in this base (bench-top tasting panel [2]): 0.002% | Taste of test soup compared with reference soup [5]: more umami, had a clear lingering effect, was more salty and was more complex

COc1ccc(C(=O)CCc2ccccn2)c(O)c1 [1-(2-hydroxy-4-methoxyphenyl)-3-(pyridin-2-yl)propan-1-one]
Finishing position in blind ranking of 6 samples on umami (bench-top tasting panel [3]; [10]): 2 | Level preferred by panelists in this base (bench-top tasting panel [3]): 0.001% | Taste of test ketchup compared with ketchup without the compound [6]: clearly more umami, more salty and had a pleasant savoury note | Taste description (trained sensory panel [1]): umami, sweet, salty, longlasting | Finishing position in blind ranking of 6 samples on umami (bench-top tasting panel [4]; [11]): 4 | Level preferred by panelists in this base (bench-top tasting panel [4]): 0.002% | Finishing position in blind ranking of 6 samples on umami (bench-top tasting panel [2]; [9]): 3 | Level preferred by panelists in this base (bench-top tasting panel [2]): 0.002%

Cc1ccc(C(=O)CCc2ccccn2)c(O)c1 [1-(2-hydroxy-4-methylphenyl)-3-(pyridin-2-yl)propan-1-one]
Finishing position in blind ranking of 6 samples on umami (bench-top tasting panel [3]; 0.0005% compound in model chicken broth, Control 5th): 3 | Level preferred by panelists in this base (bench-top tasting panel [3]): 0.0005% | Taste description (trained sensory panel [1]): Umami, sweet, licorice, savoury | Finishing position in blind ranking of 6 samples on umami (bench-top tasting panel [4]; 0.001% compound in commercial organic chicken broth, Control 5th): 2 | Level preferred by panelists in this base (bench-top tasting panel [4]): 0.001% | Taste description (sample C) (trained sensory panel [7]; potato chips with 1.2% sodium chloride and 2 ppm compound, sample A with salt only: salty): salty, strong umami, long lasting, savoury, bouillon | Panel preference (trained sensory panel [7]; potato chips, sample C (1.2% sodium chloride, 2 ppm compound) versus sample A (salt) and sample B (salt, 0.3% MSG)): preferred sample C over the other two samples | Finishing position in blind ranking of 6 samples on umami (bench-top tasting panel [2]; 0.001% compound in model chicken broth, sugar added, Control 6th): 5 | Level preferred by panelists in this base (bench-top tasting panel [2]): 0.001%

Cc1ccc(O)c(C(=O)CCc2ccccn2)c1 [1-(2-hydroxy-5-methylphenyl)-3-(pyridine-2-yl)propan-1-one]
Taste description (trained sensory panel [1]): Umami

Cc1cccnc1CCC(=O)c1ccccc1O [1-(2-hydroxyphenyl)-3-(3-methylpyridin-2-yl)propan-1-one]
Taste description (trained sensory panel [1]): Slightly umami, savoury, meaty

Cc1ccc(CCC(=O)c2ccccc2O)nc1 [1-(2-hydroxyphenyl)-3-(5-methylpyridin-2-yl)propan-1-one]
Taste description (trained sensory panel [1]): Slightly umami, some green aftertaste,

COc1ccccc1C(=O)CCc1ccccn1 [1-(2-methoxyphenyl)-3-(pyridin-2-yl)propan-1-one]
Taste description (trained sensory panel [1]): Umami, slightly bitter

O=C(CCc1ccccn1)c1ccc(OC2CCCC2)cc1O [1-(4-(cyclopentyloxy)-2-hydroxyphenyl)-3-(pyridine-2-yl)propan-1-one]
Taste description (trained sensory panel [1]): Umami

O=C(CCc1ccccn1)c1ccc(OCC2CC2)cc1O [1-(4-cyclopropylmethoxy)-2-hydroxyphenyl)-3-(pyridine-2-yl)propan-1-one]
Taste description (trained sensory panel [1]): Umami

CCOc1ccc(C(=O)CCc2ccccn2)c(O)c1 [1-(4-ethoxy-2-hydroxyphenyl)-3-(pyridine-2-yl)propan-1-one]
Taste description (trained sensory panel [1]): Umami, floral

O=C(CCc1ccccn1)c1ccc2c(c1O)OCO2 [1-(4-hydroxybenzo[d][1,3]dioxol-5-yl)-3-(pyridin-2-yl)propan-1-one]
Taste description (Solution B) (trained sensory panel [8]): salty, umami, more bouillon-like, more complex, less sweet | Taste description (trained sensory panel [1]): Clearly umami, slightly yeasty, bouillon

CCc1ccc(O)c(C(=O)CCc2ccccn2)c1 [1-(5-ethyl-2-hydroxyphenyl)-3-(pyridine-2-yl)propan-1-one]
Taste description (trained sensory panel [1]): Umami, slightly bitter

N[C@@H](CCC(=O)O)C(=O)[O-].[Na+] [MSG, monosodium glutamate, reference compound]
Finishing position in blind ranking of 6 samples on umami (bench-top tasting panel [3]; 0.05% MSG (Reference) in model chicken broth): highest umami | Finishing position in blind ranking of 6 samples on umami (bench-top tasting panel [4]; 0.05% MSG (Reference) in commercial organic chicken broth): highest umami | Taste description (sample B) (trained sensory panel [7]; potato chips with 1.2% sodium chloride and 0.3% MSG): salty and umami | Finishing position in blind ranking of 6 samples on umami (bench-top tasting panel [2]; 0.05% MSG (Reference) in model chicken broth, sugar added): highest umami
